Test results reported in patent US8053477B2, “Inhibitors of the S100-p53 protein-protein interaction and method of inhibiting cancer employing the same” (University of Maryland, Baltimore, priority 2002, dated 2011).
Changes are numbered by the printed parent chain. pIC50, pKd: −log10 of the molar value. Where two headings read alike, the source gives them in different places. Where no end group is shown, it is not given here.

How the values were obtained:
C8146A melanoma cells = assay: siRNA transfection of C8146A melanoma cells, Western blots of S100B, p53, p21; type: cell-based, human; settings: siRNA 2.0, 20 nM; harvested 24 hrs after transfection
Protocol: The small interfering RNA (siRNA) used consisted of […] (nt) double-stranded RNA, which was synthesized by Xeragon Inc. (Huntsville, Ala.). The sequence of the siRNA, i.e., 5′-ACUACUGCCUGCCACGAGUUC-3 (SEQ ID NO:6), corresponds to the S100β C-terminal end (nt 244-265) plus two dT 3′ overhang.
Different concentrations of siRNA (2.0, 20 nM) were added to the cells along with 2.0 μg of pCMV.3 empty vector (Stratagene, La Jolla, Calif.). The siRNA was transfected in C8146A melanoma cells using FuGENE reagent (Roche Molecular Biochemicals, Indianapolis, Ind.) according to the manufacturer's recommendation. The cells were harvested 24 hrs later and analyzed by Western blots as described above.

S100B [1] = target: T1, S100B (UniProt P04631); assay: Fluorescence binding / competition titrations of small molecules to S100B
T1 sequence (P04631 1-92): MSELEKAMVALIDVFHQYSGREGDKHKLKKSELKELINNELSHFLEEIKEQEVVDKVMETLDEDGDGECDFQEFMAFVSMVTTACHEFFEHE
Protocol: (§1) Inhibition of binding of S100 proteins to p53 can be assayed by fluorescence binding/competition assays. For example, binding to S100B is monitored using fluorescent peptides such as the F43W p53 peptide ([…] (SEQ ID NO:1)) or the TRTK-12 peptide ([…] (SEQ ID NO:2)) that both contain fluorescent tryptophan residues (see Example 7). In such an assay, the binding of the peptide is monitored by changes in its fluorescence intensity at 350-370 nm in the presence of 10-20 mM calcium chloride (pH 7.4). Displacement of the peptide by the test compound is then monitored by a corresponding decrease in fluorescence intensity and the dissociation constant of the test compound from S100B is calculated using a standard competition equation (KD=Kapp/(1+[floursecent peptide]/KD peptide). The amino acid residues on S100B to which the test compound binds can then monitored by chemical shift perturbations using NMR spectroscopy.
The binding of the small molecules to S100B identified in the CADD search were measured using fluorescence spectroscopy. The compounds identified are as follows:
Compounds that fluorescent (i.e., for Compounds 9, 31 and 33) were measured by a direct binding assay to S100B via fluorescence intensity changes. […] First, changes in tyrosine fluorescence (for Tyr-17 of S100B) were sufficient in some cases to evaluate binding (Rustandi et al (1998), supra; and Szabo et al, FEBS Lett., 94:249-252 (1978)). However, to circumvent problems associated with the low quantum yield of the tyrosine residue, the F43W mutant of S100B was used (FIG. 12A), and then competition studies were done with wild-type S100B (FIG. 12B). In this S100B construct (in F43W S100B), the tryptophan residue is located in the target protein binding site, so the emission of the tryptophan mutant was measured in a straightforward manner at 338 nm as a function of adding compound. This F43W mutant has similar structure, Ca^2+-binding and target binding properties of wild-type S100B. Another approach was to bind a fluorescent probe to wild-type S100B and do competition binding assays with the compound. […] Steady state experiments to determine binding constants were performed on Aminco Bowman Series 2 Luminescence Spectrophotofluorometer with the temperature of the cell (quartz cuvettes) maintained at 25° C. Two internal controls were performed in all titrations. EGTA was added to S100B to chelate the calcium and determine whether the interaction with the drug requires the Ca^2+-dependent conformational change observed for a number of protein targets (Weber et al, supra). In addition, the titrations were performed in the absence of calcium as a control. All compounds with fluorescence emission spectra were also routinely evaluated for photobleaching before proceeding. Buffers were also checked routinely for any contaminants that may fluoresce.

[2] = test system: primary malignant melanoma cells (C8146A and HTB 64); assay: Growth of primary malignant melanoma cells (cell counting after 13 days); type: cell-based; settings: Homo sapiens
Protocol: (§2) The effect that compounds have on the growth of primary malignant melanoma cells (cell lines: C8146A and HTB 64) and normal melanocytes (Cell Applications Inc. 104-05 from neonatal foreskin) were measured. […] The growth inhibition constants (IC50 values) results from other compounds are listed above. In these studies, typically ˜10,000 cells were distributed evenly across T25 vials. One day later, new media with or without the small molecule (2.5 μM or 25 μM) was added, and the cells were allowed to grow for an additional 13 days. Because some molecules were delivered in DMSO, the effect of DMSO (0.1-0.2% (v/v)) on cell growth was also checked and found to have no effect at these levels (FIG. 13). At this point, the cells were washed in phosphate buffer saline (PBS), harvested by treatment with trypsin, and placed in F10 media with 5.0% (v/v) fetal bovine serum (FBS), 5.0% (v/v) newborn calf serum (NCS), and 2.0% (w/v) penicillin/streptomycin. The cells were counted with a hemocytometer in quadruplicate trials.

holo-S100B = target: T2, holo-S100B (Homo sapiens, UniProt P04271); assay: NMR mapping of binding interface (HSQC chemical shift perturbation, STD); settings: 37° C.
T2 construct: made in house
T2 sequence (P04271 1-92): T1 sequence (P04631 1-92) with E63N, S79A
Protocol: NMR spectroscopy experiments were carried out to determine what amino acid residues of S100B and the small molecule are interacting (FIG. 14). Resonances of S100B that interact with the small molecules were identified by titrating compounds into holo-S100B and monitoring perturbations in chemical shifts of backbone amide-proton correlations in a ^15N-edited HSQC spectrum (Mori et al, J. Magnetic Resonance, B108:94-98 (1995)). […] An example of mapping the Compound-S100B interface is provided in FIGS. 14A-14C for the interaction between holo-S100B and Compound 4. […] These residues are highlighted red in FIG. 14C for titrations with Compound 4. Resonance assignments of S100B bound to the small molecules were confirmed using a 3D NOESY-HSQC experiment, and the backbone and sidechain chemical shifts of Ca^+2-loaded S100B and S100B bound to p53 peptide as described by Drohat et al (1998), supra; Rustadni et al (2000), supra; and Rustadni et al (1998), supra, were also helpful in the assignment procedure. Regions of the inhibitors that interact with S100B were identified using epitope mapping via saturation transfer difference experiments (STDs) as described by Mayer et al, J. Am. Chem. Soc., 123:6108-6117 (2001). In FIG. 14A, protons of the compound that are proximal to S100B are indicated by arrows. […]

[3] = test system: normal melanocytes (neonatal foreskin); assay: Growth of normal melanocytes (cell counting); type: cell-based; settings: compared with melanoma cells
Protocol: as §2

S100B [4] = target: T1, S100B; assay: Fluorescence binding / competition titrations of small molecules to S100B; set-up: rows headed: KD of fluorescent probe peptide for S100B; settings: read-out: KD of fluorescent probe peptide for S100B; probes used in competition studies with wild-type S100B
Protocol: as §1
The binding of the small molecules to S100B identified in the CADD search were measured using fluorescence spectroscopy. […]
Compounds that fluorescent (i.e., for Compounds 9, 31 and 33) were measured by a direct binding assay to S100B via fluorescence intensity changes. […] First, changes in tyrosine fluorescence (for Tyr-17 of S100B) were sufficient in some cases to evaluate binding (Rustandi et al (1998), supra; and Szabo et al, FEBS Lett., 94:249-252 (1978)). […]

MCF-7 = assay: Bleomycin treatment of MCF-7 cells, Western blots of p53, mdm2, p21; type: cell-based, human; settings: MCF-7, wild type p53; FIG. 6B lane 2
Excerpt: Next, it was explored whether S100B could interact with endogenous p53 and affect the expression of mdm2 and p21. The human breast cancer cell line MCF-7, which has a wild type p53 genotype (Kastan et al, Cell, 71:587-597 (1992)), was transiently transfected with S100B. After S100B transfection, the cells were either treated (or not) with the x-ray mimic agent bleomycin to induce endogenous p53 production.

[5] = direct fluorescence, F43W S100B or peptide-probe competition, 25° C., calcium present, read-out: Kd (binding to S100B, fluorescence spectroscopy)
[6] = 312 h, primary malignant melanoma cells, screened at 2.5 μM or 25 μM, 13 days, read-out: IC50 (growth inhibition constant)

5′-ACUACUGCCUGCCACGAGUUC-3 [siS100B]
increase in p53 levels (C8146A melanoma cells): 2.3 fold
lowering of S100B levels (C8146A melanoma cells): 3 fold
up-regulation of p21 protein levels (C8146A melanoma cells): 2.6 fold

O=C(COc1ccc(C(F)(F)F)c[n+]1[O-])c1cccc([N+](=O)[O-])c1 [Compound 1, 2-[2-(3-nitrophenyl)-2-oxoethoxy]-5-(tri-fluoromethyl)pyridinium-1-olate]
pKd (S100B [1]; [5]): 5.57
pIC50 [2, 6]: 5.60

N=C(N)NC(=N)Nc1cccc(Cl)c1Cl [Compound 3, {[(2,3,dichloroanilino)(imino)methyl]amino}methanimidamide]
pIC50 ([2]; primary malignant melanoma cells, read-out: IC50 (growth inhibition constant), unit inferred): > 5.60

Cc1c(NS(=O)(=O)c2ccc(NC(=O)CCC(=O)O)cc2)c(=O)n(-c2ccccc2)n1C [Compound 4, 4-(4-{[(1,5-dimethyl-3-oxo-2-phenyl-2,3,dihydro-1H-pyrazol-4-yl)amino]sulfonyl}anilino)-4-oxo butanoic acid]
pKd (S100B [1]; [5]): 5.70
binding site on S100B by NMR (holo-S100B): interacts with the C-terminus of S100B (loop 4) and another region of S100B (loop 2)

N=C(N)NC(=N)Nc1ccc(Cl)cc1C(=O)c1ccccc1 [Compound 9, {[(2-benzoyl-4-chloroanilino)(imino)methyl]amino}methanimidamide]
pKd (S100B [1]; [5]): 5.40

O=C(O)c1cc(N/N=C/c2ccc(-c3ccc(Cl)c(C(=O)O)c3)o2)ccc1Cl [Compound 31]
pKd (S100B [1]; [5]): ~5.22
pIC50 [2, 6]: ~4.60

COc1cc(C2Nc3ccccc3-c3nc(SC)nnc3O2)ccc1OCC(=O)O (stereo not drawn) [Compound 33, 1,2-(3-methylthiotraizine),3,4-phenyl,6-[(2-methoxyphenoxy)Acetic Acid]morpholine]
pIC50 [2, 6]: ~4.60

CC(C)(C)NC(=O)c1cccc(N2C(=O)c3ccc(C(=O)O)cc3C2=O)c1 [Compound 44, 2-(3-tert-Butylcarbamoyl-phenyl)-1,3-dioxo-2,3-dihydro-1H-isoindole-5-carboxylic acid]
pKd (S100B [1]; [5]): ~4.62

COc1cccc(N2C(=O)c3ccc(C(=O)Nc4cc(C(=O)O)cc(C(=O)O)c4)cc3C2=O)c1 [Compound 45, 5-{[2-(3-Methoxy-phenyl)-1,3-dioxo-2,3-dihydro-1H-isoindole-5-carbonyl]-amino}-isophthalic acid]
pKd (S100B [1]; [5]): ~4.92

N=C(N)c1ccc(OCCCCCOc2ccc(C(=N)N)cc2)cc1 [pentamidine, reference compound]
effect on normal melanocytes, in words [3]: lesser effects on normal melanocytes
pKd (S100B [1]; [5]): 5.85
pKd (S100B [1]; read-out: binding constant (KD) between wild-type holo-S100B and pentamidine, competition of pentamidine bound to F43W S100B with wild-type S100B): 6.15
pIC50 ([2]; primary malignant melanoma cells (C8146A), read-out: IC50 for inhibition of cell growth): ~6.30
binding site on S100B by NMR (holo-S100B): in the p53 binding site

SHLKSKKGQSTSRHKKLMWKTE [p53 (F385W), reference compound]
pKd (S100B [4]): 5.52

bleomycin
basal levels of p53, mdm2 and p21, in words (MCF-7): induced
